# Where “and” joins values, the source holds several entries; their conditions need not be identical. Equal values may be shown once.
# System: 628569-122-R-J1-PDC complex spheroid viability
# Test: Anticancer human tumor 628569-122-R-J1-PDC patient-derived head and neck squamous carcinoma cell line growth inhibition [CLK]
# Conditions: for viability, T/C: stronger effect = lower value
# Summary of the method: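 Patient-derived tumor cells grown as complex spheroids with HUVEC endothelial cells and mesenchymal stem cells, treated with drug combinations. Concentrations descend in half-log steps from near clinical Cmax, or from 10 microM if Cmax unknown.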
# [1] = curve of first compound, second compound 0.0316 µM
# [2] = curve of first compound, second compound 0.1 µM
# [3] = curve of first compound, second compound 0.316 µM
# [4] = curve of first compound, second compound 1 µM
# [5] = curve of first compound, second compound 3.16 µM
# [6] = curve of first compound, second compound 10 µM
# 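Also: spheroids exposed to agents for seven days before readout.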
# 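For viability, T/C in this document: 100% = DMSO vehicle control viability.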
smiles,measurement,setting,value
CC(=O)O[C@H]1C(=O)[C@@]2(C)[C@H]([C@H](OC(=O)c3ccccc3)[C@]3(O)C[C@H](OC(=O)[C@H](O)[C@@H](NC(=O)c4ccccc4)c4ccccc4)C(C)=C1C3(C)C)[C@]1(OC(C)=O)CO[C@@H]1C[C@@H]2O + CNC(=O)c1ccc(Nc2nc(OC3CCCC3)c3c(-c4ccc5nc(C)oc5c4)c[nH]c3n2)c(OC)c1,IC50,[1],< 31.6 nM
same,IC50,[2],< 31.6 nM
same,IC50,[3],< 31.6 nM
same,IC50,[4],< 31.6 nM
same,IC50,[5],< 31.6 nM
same,IC50,[6],< 31.6 nM
same,"viability, T/C","second compound 0.0316 µM, first compound 0.0316 µM",34.6%
same,"viability, T/C","second compound 0.0316 µM, first compound 0.1 µM",33.5%
same,"viability, T/C","second compound 0.0316 µM, first compound 0.316 µM",36.6%
same,"viability, T/C","second compound 0.0316 µM, first compound 1 µM",35.9%
same,"viability, T/C","second compound 0.0316 µM, first compound 3.16 µM",36.5%
same,"viability, T/C","second compound 0.0316 µM, first compound 10 µM",59%
same,"viability, T/C","second compound 0.1 µM, first compound 0.0316 µM",50.4%
same,"viability, T/C","second compound 0.1 µM, first compound 0.1 µM",47.4%
same,"viability, T/C","second compound 0.1 µM, first compound 0.316 µM",49.6%
same,"viability, T/C","second compound 0.1 µM, first compound 1 µM",55.5%
same,"viability, T/C","second compound 0.1 µM, first compound 3.16 µM",67.9%
same,"viability, T/C","second compound 0.1 µM, first compound 10 µM",68.4%
same,"viability, T/C","second compound 0.316 µM, first compound 0.0316 µM",43.1%
same,"viability, T/C","second compound 0.316 µM, first compound 0.1 µM",55.3%
same,"viability, T/C","second compound 0.316 µM, first compound 0.316 µM",59.7%
same,"viability, T/C","second compound 0.316 µM, first compound 1 µM",63.9%
same,"viability, T/C","second compound 0.316 µM, first compound 3.16 µM",72.9%
same,"viability, T/C","second compound 0.316 µM, first compound 10 µM",72.9%
same,"viability, T/C","second compound 1 µM, first compound 0.0316 µM",41.4%
same,"viability, T/C","second compound 1 µM, first compound 0.1 µM",53%
same,"viability, T/C","second compound 1 µM, first compound 0.316 µM",55.2%
same,"viability, T/C","second compound 1 µM, first compound 1 µM",57.6%
same,"viability, T/C","second compound 1 µM, first compound 3.16 µM",57.9%
same,"viability, T/C","second compound 1 µM, first compound 10 µM",68.5%
same,"viability, T/C","second compound 3.16 µM, first compound 0.0316 µM",44.8%
same,"viability, T/C","second compound 3.16 µM, first compound 0.1 µM",51.6%
same,"viability, T/C","second compound 3.16 µM, first compound 0.316 µM",56.8%
same,"viability, T/C","second compound 3.16 µM, first compound 1 µM",56.6%
same,"viability, T/C","second compound 3.16 µM, first compound 3.16 µM",60.9%
same,"viability, T/C","second compound 3.16 µM, first compound 10 µM",64.7%
same,"viability, T/C","second compound 10 µM, first compound 0.0316 µM",41.2%
same,"viability, T/C","second compound 10 µM, first compound 0.1 µM",47%
same,"viability, T/C","second compound 10 µM, first compound 0.316 µM",55.3%
same,"viability, T/C","second compound 10 µM, first compound 1 µM",64.2%
same,"viability, T/C","second compound 10 µM, first compound 3.16 µM",65%
same,"viability, T/C","second compound 10 µM, first compound 10 µM",69.9%
C=CC(=O)Nc1cc(Nc2nccc(-c3cn(C)c4ccccc34)n2)c(OC)cc1N(C)CCN(C)C + CN1CCN(c2cc(C(=O)Nc3cc4cc(-c5cnn(C)c5)ccc4cn3)ccn2)CC1,IC50,[1],> 300 nM
same,IC50,[2],102 nM
same,IC50,[3],< 0.949 nM
same,IC50,[4],< 0.949 nM
same,IC50,[5],< 0.949 nM
same,IC50,[6],< 0.949 nM
same,"viability, T/C","second compound 0.0316 µM, first compound 0.000949 µM",98.5%
same,"viability, T/C","second compound 0.0316 µM, first compound 0.003 µM",112%
same,"viability, T/C","second compound 0.0316 µM, first compound 0.00949 µM",94.6%
same,"viability, T/C","second compound 0.0316 µM, first compound 0.03 µM",89.1%
same,"viability, T/C","second compound 0.0316 µM, first compound 0.0949 µM",98.4%
same,"viability, T/C","second compound 0.0316 µM, first compound 0.3 µM",59.1%
same,"viability, T/C","second compound 0.1 µM, first compound 0.000949 µM",56.9%
same,"viability, T/C","second compound 0.1 µM, first compound 0.003 µM",68.1%
same,"viability, T/C","second compound 0.1 µM, first compound 0.00949 µM",70.1%
same,"viability, T/C","second compound 0.1 µM, first compound 0.03 µM",57%
same,"viability, T/C","second compound 0.1 µM, first compound 0.0949 µM",52.9%
same,"viability, T/C","second compound 0.1 µM, first compound 0.3 µM",19.4%
same,"viability, T/C","second compound 0.316 µM, first compound 0.000949 µM",35.5%
same,"viability, T/C","second compound 0.316 µM, first compound 0.003 µM",44.2%
same,"viability, T/C","second compound 0.316 µM, first compound 0.00949 µM",38.6%
same,"viability, T/C","second compound 0.316 µM, first compound 0.03 µM",39%
same,"viability, T/C","second compound 0.316 µM, first compound 0.0949 µM",32.9%
same,"viability, T/C","second compound 0.316 µM, first compound 0.3 µM",14.3%
same,"viability, T/C","second compound 1 µM, first compound 0.000949 µM",5.92%
same,"viability, T/C","second compound 1 µM, first compound 0.003 µM",6.94%
same,"viability, T/C","second compound 1 µM, first compound 0.00949 µM",10.9%
same,"viability, T/C","second compound 1 µM, first compound 0.03 µM",5.22%
same,"viability, T/C","second compound 1 µM, first compound 0.0949 µM",7.08%
same,"viability, T/C","second compound 1 µM, first compound 0.3 µM",5.76%
same,"viability, T/C","second compound 3.16 µM, first compound 0.000949 µM",5.99%
same,"viability, T/C","second compound 3.16 µM, first compound 0.003 µM",7.83%
same,"viability, T/C","second compound 3.16 µM, first compound 0.00949 µM",7.06%
same,"viability, T/C","second compound 3.16 µM, first compound 0.03 µM",9.16%
same,"viability, T/C","second compound 3.16 µM, first compound 0.0949 µM",6.05%
same,"viability, T/C","second compound 3.16 µM, first compound 0.3 µM",4.8%
same,"viability, T/C","second compound 10 µM, first compound 0.000949 µM",2.23%
same,"viability, T/C","second compound 10 µM, first compound 0.003 µM",2.23%
same,"viability, T/C","second compound 10 µM, first compound 0.00949 µM",4.31%
same,"viability, T/C","second compound 10 µM, first compound 0.03 µM",2.44%
same,"viability, T/C","second compound 10 µM, first compound 0.0949 µM",2.36%
same,"viability, T/C","second compound 10 µM, first compound 0.3 µM",4.04%
C=CC(=O)N1CCN(c2nc(=O)n(-c3c(C)ccnc3C(C)C)c3nc(-c4c(O)cccc4F)c(F)cc23)C(C)C1 (stereo unspecified),"viability, T/C",compound 0.0316 µM,88.8% and 84.2%
same,"viability, T/C",compound 0.1 µM,95.5% and 87.3%
same,"viability, T/C",compound 0.316 µM,92.8% and 92.9%
same,"viability, T/C",compound 1 µM,113% and 101%
same,"viability, T/C",compound 3.16 µM,124% and 132%
same,"viability, T/C",compound 10 µM,118% and 124%
same,IC50,curve of compound,> 10000 nM
